Measured values from PubChem BioAssay AID248 (DTP/NCI, 2004).
Where “and” joins values, the source holds several entries; their conditions need not be identical. Identical values can stand only once. Inconclusive results and toxic doses are left out.

Test system: L1210 leukemia ip in BDF1 mice, survival T/C
Assay: NCI In Vivo Anticancer Drug Screen. Data for tumor model L1210 Leukemia (intraperitoneal) in B6D2F1 (BDF1) mice
Conditions: endpoint: mean survival time, higher = longer survival
Outline: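 Tumor cells were implanted, animals were treated, and survival was followed. The result divides the treated measurement by the vehicle-control measurement.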

[1] = dose: 100.0 mg/kg/injection, schedule: Q01DX009 (ip), vehicle: Klucel (hydroxypropylcellulose) (HPC)
[2] = dose: 100.0 mg/kg/injection, schedule: Q04DX003 (ip), vehicle: Klucel (hydroxypropylcellulose) (HPC)
[3] = dose: 200.0 mg/kg/injection, schedule: Q01DX009 (ip), vehicle: Klucel (hydroxypropylcellulose) (HPC)
[4] = dose: 200.0 mg/kg/injection, schedule: Q04DX003 (ip), vehicle: Klucel (hydroxypropylcellulose) (HPC)
[5] = dose: 50.0 mg/kg/injection, schedule: Q01DX009 (ip), vehicle: Klucel (hydroxypropylcellulose) (HPC)
[6] = dose: 50.0 mg/kg/injection, schedule: Q04DX002 (ip), vehicle: saline
[7] = dose: 100.0 mg/kg/injection, schedule: Q04DX002 (ip), vehicle: saline
[8] = dose: 100.0 mg/kg/injection, schedule: Q01DX001 (ip), vehicle: saline
[9] = dose: 200.0 mg/kg/injection, schedule: Q01DX001 (ip), vehicle: saline
[10] = dose: 400.0 mg/kg/injection, schedule: Q01DX001 (ip), vehicle: saline
[11] = dose: 100.0 mg/kg/injection, schedule: Q01DX009 (ip), vehicle: saline
[12] = dose: 100.0 mg/kg/injection, schedule: Q04DX003 (ip), vehicle: saline
[13] = dose: 200.0 mg/kg/injection, schedule: Q01DX009 (ip), vehicle: saline
[14] = dose: 400.0 mg/kg/injection, schedule: Q01DX009 (ip), vehicle: saline
[15] = dose: 100.0 mg/kg/injection, schedule: Q04DX002 (ip), vehicle: Klucel (hydroxypropylcellulose) (HPC)
[16] = dose: 200.0 mg/kg/injection, schedule: Q04DX002 (ip), vehicle: Klucel (hydroxypropylcellulose) (HPC)
[17] = dose: 50.0 mg/kg/injection, schedule: Q01DX009 (ip), vehicle: saline

CN=C(NC(C)C)c1ccc(NC(=O)c2ccc(C(=O)Nc3ccc(C(=NC)NC(C)C)cc3)cc2)cc1
T/C (dose: 2.0 mg/kg/injection, schedule: Q01DX Z (ip), vehicle: carboxymethylcellulose (CMC)): 97 % of control | T/C (dose: 4.0 mg/kg/injection, schedule: Q01DX Z (ip), vehicle: carboxymethylcellulose (CMC)): 101 % of control | T/C (dose: 6.0 mg/kg/injection, schedule: Q01DX Z (ip), vehicle: carboxymethylcellulose (CMC)): 112 % of control | T/C (dose: 16.0 mg/kg/injection, schedule: Q01DX Z (ip), vehicle: carboxymethylcellulose (CMC)): 151 % of control | T/C (dose: 25.0 mg/kg/injection, schedule: Q01DX Z (oral), vehicle: carboxymethylcellulose (CMC)): 96 % of control | T/C (dose: 31.0 mg/kg/injection, schedule: Q01DX Z (ip), vehicle: methylcellulose (MC)): 117 % of control | T/C (dose: 50.0 mg/kg/injection, schedule: Q01DX Z (oral), vehicle: carboxymethylcellulose (CMC)): 101 % of control | T/C (dose: 62.5 mg/kg/injection, schedule: Q01DX Z (ip), vehicle: methylcellulose (MC)): 157 % of control | T/C (dose: 100.0 mg/kg/injection, schedule: Q01DX Z (oral), vehicle: carboxymethylcellulose (CMC)): 96 % of control | T/C (dose: 125.0 mg/kg/injection, schedule: Q01DX Z (ip), vehicle: methylcellulose (MC)): 157 % of control | T/C (dose: 200.0 mg/kg/injection, schedule: Q01DX Z (oral), vehicle: carboxymethylcellulose (CMC)): 101 % of control | T/C (dose: 250.0 mg/kg/injection, schedule: Q01DX Z (ip), vehicle: methylcellulose (MC)): 97 % of control

COC(=O)C1C=CCC2C(=O)C=C(C)C(=O)C12C (stereo unspecified)
T/C [1]: 94 % of control | T/C [2]: 96 % of control | T/C [3]: 92 % of control | T/C [4]: 100 % of control | T/C (dose: 400.0 mg/kg/injection, schedule: Q01DX009 (ip), vehicle: Klucel (hydroxypropylcellulose) (HPC)): 97 % of control | T/C (dose: 400.0 mg/kg/injection, schedule: Q04DX003 (ip), vehicle: Klucel (hydroxypropylcellulose) (HPC)): 96 % of control

O=P(NCCCl)(Nc1ccccc1)Nc1ccccc1
T/C [5]: 112 % of control | T/C [1]: 108 % of control | T/C [2]: 90 % of control | T/C [3]: 108 % of control

CCCCCCC(=O)N1CCOCC1
T/C (dose: 25.0 mg/kg/injection, schedule: Q04DX002 (ip), vehicle: saline): 108 % of control | T/C [6]: 101 % of control | T/C [7]: 93 % of control and 92 % of control

Cc1[nH]c(=S)[nH]c(=O)c1CCS
T/C [8]: 98 % of control | T/C [9]: 93 % of control | T/C [10]: 95 % of control

CCCCN1CC2CCCC1O2 (stereo unspecified)
T/C (dose: 50.0 mg/kg/injection, schedule: Q01DX001 (ip), vehicle: saline): 97 % of control | T/C [8]: 95 % of control

FC(F)(F)c1nnnn1Cc1ccccc1
T/C [6]: 93 % of control | T/C [7]: 101 % of control | T/C (dose: 200.0 mg/kg/injection, schedule: Q04DX002 (ip), vehicle: saline): 101 % of control

ClCc1ccccn1
T/C [11]: 92 % of control | T/C [12]: 98 % of control | T/C [13]: 95 % of control | T/C (dose: 200.0 mg/kg/injection, schedule: Q04DX003 (ip), vehicle: saline): 101 % of control | T/C [14]: 89 % of control | T/C (dose: 400.0 mg/kg/injection, schedule: Q04DX003 (ip), vehicle: saline): 94 % of control

CCOC(=O)c1cc2cc(CC)ccc2[nH]1
T/C (dose: 100.0 mg/kg/injection, schedule: Q01DX001 (ip), vehicle: other): 102 % of control | T/C (dose: 200.0 mg/kg/injection, schedule: Q01DX001 (ip), vehicle: other): 95 % of control | T/C (dose: 400.0 mg/kg/injection, schedule: Q01DX001 (ip), vehicle: other): 95 % of control

O=[N+]([O-])c1ccc(-[n+]2nc(-c3ccccc3)nn2-c2ccc(I)cc2)cc1
T/C (dose: 8.0 mg/kg/injection, schedule: Q01DX015 (ip), vehicle: carboxymethylcellulose (CMC)): 96 % of control | T/C (dose: 16.0 mg/kg/injection, schedule: Q01DX015 (ip), vehicle: carboxymethylcellulose (CMC)): 96 % of control | T/C (dose: 32.0 mg/kg/injection, schedule: Q01DX015 (ip), vehicle: carboxymethylcellulose (CMC)): 103 % of control | T/C (dose: 50.0 mg/kg/injection, schedule: Q01DX001 (ip), vehicle: carboxymethylcellulose (CMC)): 91 % of control | T/C (dose: 64.0 mg/kg/injection, schedule: Q01DX015 (ip), vehicle: carboxymethylcellulose (CMC)): 88 % of control

O=[N+]([O-])c1cccnc1Cl
T/C [5]: 107 % of control | T/C [1]: 95 % of control | T/C [2]: 92 % of control | T/C [3]: 95 % of control | T/C [4]: 91 % of control

COCCOCCOCCOCCOCCN
T/C [11]: 96 % of control | T/C [13]: 93 % of control | T/C [14]: 98 % of control

Nc1nc(N)c(CCCOc2ccccc2Cl)c(N)n1
T/C (dose: 100.0 mg/kg/injection, schedule: Q01DX001 (ip), vehicle: Klucel (hydroxypropylcellulose) (HPC)): 102 % of control | T/C (dose: 200.0 mg/kg/injection, schedule: Q01DX001 (ip), vehicle: Klucel (hydroxypropylcellulose) (HPC)): 102 % of control

COC1OC(CBr)C(OC(C)=O)C(OC(C)=O)C1OS(C)(=O)=O (stereo unspecified)
T/C [15]: 100 % of control | T/C [16]: 97 % of control | T/C (dose: 400.0 mg/kg/injection, schedule: Q04DX002 (ip), vehicle: Klucel (hydroxypropylcellulose) (HPC)): 103 % of control

CCN(CC)c1ccc(SC#N)cc1
T/C [8]: 101 % of control

Nc1cc(Cl)cc2c1-c1c(Cl)cc(Cl)cc1C2=O
T/C [1]: 100 % of control | T/C [2]: 97 % of control | T/C [3]: 106 % of control | T/C [4]: 95 % of control

COc1ccccc1C1CC(C(C)(C)C)CCC1OS(=O)(=O)c1ccc(C)cc1 (stereo unspecified)
T/C [17]: 90 % of control | T/C [11]: 92 % of control | T/C (dose: 100.0 mg/kg/injection, schedule: Q04DX003 (ip), vehicle: acetone): 102 % of control | T/C [13]: 95 % of control | T/C (dose: 200.0 mg/kg/injection, schedule: Q04DX003 (ip), vehicle: acetone): 96 % of control | T/C (dose: 400.0 mg/kg/injection, schedule: Q04DX003 (ip), vehicle: acetone): 94 % of control

CN(CC(=O)O)CC1C(c2ccccc2)C1c1ccccc1 (stereo unspecified)
T/C [15]: 100 % of control | T/C [16]: 93 % of control

CC(CC1c2ccccc2CCc2ccccc21)CN(C)C (stereo unspecified)
T/C (dose: 6.25 mg/kg/injection, schedule: Q01DX009 (ip), vehicle: saline): 95 % of control | T/C (dose: 12.5 mg/kg/injection, schedule: Q01DX009 (ip), vehicle: saline): 104 % of control | T/C (dose: 25.0 mg/kg/injection, schedule: Q01DX009 (ip), vehicle: saline): 95 % of control | T/C (dose: 25.0 mg/kg/injection, schedule: Q04DX003 (ip), vehicle: saline): 102 % of control | T/C [17]: 101 % of control | T/C (dose: 50.0 mg/kg/injection, schedule: Q04DX003 (ip), vehicle: saline): 107 % of control | T/C [12]: 120 % of control

O=C(Nc1ccc(C2=NCCCN2)cc1)c1ccc(C(=O)Nc2ccc(C3=NCCCN3)cc2)nc1
T/C (dose: 1.5 mg/kg/injection, schedule: Q01DX Z (ip), vehicle: water): 122 % of control | T/C (dose: 3.0 mg/kg/injection, schedule: Q01DX Z (ip), vehicle: water): 114 % of control | T/C (dose: 3.0 mg/kg/injection, schedule: Q01DX Z (oral), vehicle: water): 97 % of control | T/C (dose: 6.0 mg/kg/injection, schedule: Q01DX Z (ip), vehicle: water): 172 % of control | T/C (dose: 6.25 mg/kg/injection, schedule: Q01DX Z (oral), vehicle: water): 95 % of control | T/C (dose: 7.5 mg/kg/injection, schedule: Q01DX001 (ip), vehicle: water): 118 % of control | T/C (dose: 12.5 mg/kg/injection, schedule: Q01DX Z (oral), vehicle: water): 89 % of control | T/C (dose: 25.0 mg/kg/injection, schedule: Q01DX Z (oral), vehicle: water): 91 % of control

Cc1ccc(S(=O)(=O)Nc2ccc3ncccc3c2[N+](=O)[O-])cc1
T/C [8]: 94 % of control | T/C [9]: 93 % of control | T/C [10]: 98 % of control

O=C(N/N=C/c1cccc([N+](=O)[O-])c1)c1cccc2ccccc12
T/C [9]: 92 % of control | T/C [10]: 95 % of control

COC(=O)NCCOS(C)(=O)=O
T/C [8]: 91 % of control | T/C [9]: 91 % of control | T/C [10]: 88 % of control
